Results reported in patent US20120016009A1, “Optimized Methods For Delivery Of DSRNA Targeting The PCSK9 Gene” (priority 2008, published 2012).
In the oligonucleotide strings, read from the 5' end, every base follows the letter of its sugar. An asterisk marks phosphorothioate; unmarked linkages are phosphodiester. Other units and linkages are bracketed, terminal groups are in braces. A string of capitals states the bases alone. d = 2'-deoxy (DNA); m = 2'-O-methyl; r = 2'-OH (RNA)

Test system: PCSK9 mRNA
Experiment: PCSK9 siRNA screening in HepG2 cells (lipofectamine 2000 transfection, PCSK9 mRNA by Quantigene, normalized to GAP-DH)
Assay type: cell-based, human
Conditions: for Mean percent remaining mRNA transcript at siRNA concentration/in cell type 3 nM/HepG2: 3 nM siRNA; for Mean percent remaining mRNA transcript at siRNA concentration/in cell type 30 nM/HepG2: 30 nM siRNA
In short: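 PCSK9 silencing was assessed in HepG2 cells by lipofectamine 2000 siRNA transfection in 96-well plates. Twenty-four hours later, lysates were analyzed with the Quantigene Explore Kit, with PCSK9 signal normalized to GAP-DH. Eight datapoints were collected per siRNA, and remaining transcript was expressed as a percentage of cells treated with an unrelated control siRNA duplex.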

Row | Substance | IC50 | Mean percent remaining mRNA transcript at siRNA concentration/in cell type 3 nM/HepG2 | Mean percent remaining mRNA transcript at siRNA concentration/in cell type 30 nM/HepG2
1 | AD-9688: PCSK9 siRNA (sense mUmCmUmCmCmUrArGrAmCrAmCmCrArGmCrAmUrAdT*dT; antisense mUrArUrGrCrUrGrGrUrGrUrCmUrArGrGrArGrAdT*dT) | 4.2 nM | 34% | 26%
2 | AD-9689: PCSK9 siRNA (sense mCrGmCmUrGmCmCrGrGmCrArAmCmUmUmCmCrGrGdT*dT; antisense rCrCrGrGrArArGrUrUrGrCrCrGrGmCrArGrCrGdT*dT) |  |  | 81%
3 | AD-9690: PCSK9 siRNA (sense mUmCrAmUmUrGrGmUrGmCmCmUmCmCrArGmCrGrAdT*dT; antisense rUrCrGrCrUrGrGrArGrGmCrArCmCrArArUrGrAdT*dT) |  |  | 92%
4 | AD-9691: PCSK9 siRNA (sense mUrAmCmUmCmUrGmCmUmCmUrAmUrGmCmCrArGrGdT*dT; antisense rCrCrUrGrGmCrAmUrArGrArGmCrArGrArGmUrAdT*dT) |  |  | 49%
5 | AD-9692: PCSK9 siRNA (sense mUrGmCmCrGrGrGmCmCmCrAmCrArAmCrGmCmUmUdT*dT; antisense rArArGrCrGrUrUrGrUrGrGrGrCrCrCrGrGmCrAdT*dT) |  |  | 78%
6 | AD-9693: PCSK9 siRNA (sense mCrGmCmUrGmUrGmUrGrGrAmCmCmUmCmUmUmUrGdT*dT; antisense mCrArArArGrArGrGrUrCmCrAmCrAmCrArGrCrGdT*dT) |  |  | 50%
7 | AD-9694: PCSK9 siRNA (sense rGmUmUrGrArGrGmCrArGrArGrAmCmUrGrAmUmCdT*dT; antisense rGrArUmCrArGrUrCrUrCrUrGrCrCrUmCrArArCdT*dT) |  |  | 52%
8 | AD-9695: PCSK9 siRNA (sense rArGmCmUmCmCmUrGmCrAmCrArGmUmCmCmUmCmCdT*dT; antisense rGrGrArGrGrArCrUrGrUrGmCrArGrGrArGrCrUdT*dT) |  |  | 102%
9 | AD-9696: PCSK9 siRNA (sense mCmUrGmCmCrGrGrGmCmCmCrAmCrArAmCrGmCmUdT*dT; antisense rArGrCrGrUrUrGrUrGrGrGrCrCrCrGrGmCrArGdT*dT) |  |  | 77%
10 | AD-9697: PCSK9 siRNA (sense rGmCmCrArGrGmUrGmCmUrGmCmCmUrGmCmUrAmCdT*dT; antisense rGmUrArGmCrArGrGmCrArGmCrArCrCrUrGrGrCdT*dT) |  | 89% | 74%
11 | AD-9698: PCSK9 siRNA (sense mCmCrArGrGmUrGmCmUrGmCmCmUrGmCmUrAmCmCdT*dT; antisense rGrGmUrArGmCrArGrGmCrArGmCrArCrCrUrGrGdT*dT) |  |  | 73%
12 | AD-9699: PCSK9 siRNA (sense rAmUrGrGmUmCrAmCmCrGrAmCmUmUmCrGrArGrAdT*dT; antisense rUrCrUrCrGrArArGrUrCrGrGrUrGrArCmCrArUdT*dT) | 2.5 nM | 36% | 32%
13 | AD-9701: PCSK9 siRNA (sense mCmCrGmCmUrGmCmCrGrGmCrArAmCmUmUmCmCrGdT*dT; antisense rCrGrGrArArGrUrUrGrCrCrGrGmCrArGrCrGrGdT*dT) |  |  | 100%
14 | AD-9702: PCSK9 siRNA (sense rGmCrArGrArGrAmCmUrGrAmUmCmCrAmCmUmUmCdT*dT; antisense rGrArArGrUrGrGrArUmCrArGrUrCrUrCrUrGrCdT*dT) |  |  | 79%
15 | AD-9704: PCSK9 siRNA (sense mCrAmUmUmUrAmUmCmUmUmUmUrGrGrGmUmCmUrGdT*dT; antisense mCrArGrArCrCmCrArArArArGrAmUrArArArUrGdT*dT) |  |  | 111%
16 | AD-9705: PCSK9 siRNA (sense rAmUmCrGrArGrGrArGrGrAmCmUmCmCmUmCmUrGdT*dT; antisense mCrArGrArGrGrArGrUrCrCrUrCrCrUrCrGrArUdT*dT) |  |  | 81%
17 | AD-9706: PCSK9 siRNA (sense mCmCmUrGmCrGmCrGmUrGmCmUmCrArAmCmUrGmCdT*dT; antisense rGmCrArGrUrUrGrArGmCrArCrGrCrGmCrArGrGdT*dT) |  |  | 86%
18 | AD-9707: PCSK9 siRNA (sense mUrGmCrGmCrGmUrGmCmUmCrArAmCmUrGmCmCrAdT*dT; antisense rUrGrGmCrArGrUrUrGrArGmCrArCrGrCrGmCrAdT*dT) |  |  | 81%

Row | Substance | IC50 | Mean percent remaining mRNA transcript at siRNA concentration/in cell type 3 nM/HepG2 | Mean percent remaining mRNA transcript at siRNA concentration/in cell type 30 nM/HepG2
19 | AD-9708: PCSK9 siRNA (sense mCmCrArGmCrAmUmCmCrAmCrGmCmUmUmCmCmUrGdT*dT; antisense mCrArGrGrArArGrCrGrUrGrGrArUrGrCrUrGrGdT*dT) |  |  | 81%
20 | AD-9709: PCSK9 siRNA (sense mCmCmCrAmUrGmUmCrGrAmCmUrAmCrAmUmCrGrAdT*dT; antisense rUrCrGrArUrGmUrArGrUrCrGrAmCrArUrGrGrGdT*dT) |  |  | 104%
21 | AD-9710: PCSK9 siRNA (sense mCmCmCmUrGrGmCrGrGrGmUrGrGrGmUrAmCrArGdT*dT; antisense rCrUrGmUrArCrCmCrArCrCrCrGrCmCrArGrGrGdT*dT) |  |  | 111%
22 | AD-9711: PCSK9 siRNA (sense mCrGrGmCrArAmCmUmUmCmCrGrGrGrAmCrGrAmUdT*dT; antisense rArUrCrGrUrCrCrCrGrGrArArGrUrUrGrCrCrGdT*dT) |  |  | 122%
23 | AD-9712: PCSK9 siRNA (sense rGrAmCrAmUmCrAmUmUrGrGmUrGmCmCmUmCmCrAdT*dT; antisense rUrGrGrArGrGmCrArCmCrArArUrGrArUrGrUrCdT*dT) |  |  | 107%
24 | AD-9714: PCSK9 siRNA (sense rGrGmUmCrAmCmCrGmCmUrGmCmCrGrGmCrArAmCdT*dT; antisense rGrUrUrGrCrCrGrGmCrArGrCrGrGrUrGrArCrCdT*dT) |  |  | 106%
25 | AD-9715: PCSK9 siRNA (sense mCrAmCmCrGmCmUrGmCmCrGrGmCrArAmCmUmUmCdT*dT; antisense rGrArArGrUrUrGrCrCrGrGmCrArGrCrGrGrUrGdT*dT) |  |  | 113%
26 | AD-9716: PCSK9 siRNA (sense rAmCmCrArAmCmUmUmUrGrGmCmCrGmCmUrGmUrGdT*dT; antisense mCrAmCrArGrCrGrGrCmCrArArArGrUrUrGrGrUdT*dT) |  |  | 114%
27 | AD-9717: PCSK9 siRNA (sense rAmCmUrGmUmCmCmCmUmCmCmUmUrGrArGmCrAmCdT*dT; antisense rGrUrGrCrUmCrArArGrGrArGrGrGrAmCrArGrUdT*dT) |  |  | 105%
28 | AD-9718: PCSK9 siRNA (sense mCmCmUrArGrAmCrAmCmCrArGmCrAmUrAmCrArGdT*dT; antisense rCrUrGmUrArUrGrCrUrGrGrUrGrUrCmUrArGrGdT*dT) |  |  | 78%
29 | AD-9719: PCSK9 siRNA (sense mCrArGrGrGmUmCrAmUrGrGmUmCrAmCmCrGrAmCdT*dT; antisense rGrUrCrGrGrUrGrArCmCrArUrGrArCrCrCrUrGdT*dT) |  |  | 115%
30 | AD-9720: PCSK9 siRNA (sense rGmCmUrGmCmCrGrGmCrArAmCmUmUmCmCrGrGrGdT*dT; antisense rCrCrCrGrGrArArGrUrUrGrCrCrGrGmCrArGrCdT*dT) |  |  | 92%
31 | AD-9721: PCSK9 siRNA (sense mCmUrGrArGrGrAmCmCrArGmCrGrGrGmUrAmCmUdT*dT; antisense rArGmUrArCrCrCrGrCrUrGrGrUrCrCrUmCrArGdT*dT) |  | 70% | 87%
32 | AD-9722: PCSK9 siRNA (sense rGrArArGrAmUrGrArGmUrGrGmCrGrAmCmCmUrGdT*dT; antisense mCrArGrGrUrCrGrCmCrArCrUmCrArUrCrUrUrCdT*dT) |  |  | 76%
33 | AD-9724: PCSK9 siRNA (sense mCmCmUrGrGmUrGrGrArGrGmUrGmUrAmUmCmUmCdT*dT; antisense rGrArGrAmUrAmCrArCrCrUrCmCrArCmCrArGrGdT*dT) |  |  | 127%
34 | AD-9725: PCSK9 siRNA (sense mUmUmCmUrGrGrAmUrGrGmCrAmUmCmUrArGmCmCdT*dT; antisense rGrGrCmUrArGrArUrGrCmCrArUrCmCrArGrArAdT*dT) |  |  | 38%
35 | AD-9726: PCSK9 siRNA (sense rGmUmCrGmUrGmCmUrGrGmUmCrAmCmCrGmCmUrGdT*dT; antisense mCrArGrCrGrGrUrGrArCmCrArGmCrArCrGrArCdT*dT) |  |  | 95%
36 | AD-9727: PCSK9 siRNA (sense rArGrGrGmUmCrAmUrGrGmUmCrAmCmCrGrAmCmUdT*dT; antisense rArGrUrCrGrGrUrGrArCmCrArUrGrArCrCrCrUdT*dT) |  |  | 118%
